Laboratory results published in patent US20040102622A1, “Modulation of hepatocyte growth factor receptor expression” (Isis Pharmaceuticals Inc., priority 2002, published 2004).

system: human hepatocyte growth factor receptor mRNA

Substance	inhibition of human hepatocyte growth factor receptor expression
ISIS 155101: 2′-MOE gapmer, phosphorothioate backbone, sequence ttcagccacaggaaaaaccc (antisense TTCAGCCACAGGAAAAACCC; all phosphorothioate, sugars by position and methylation of C not given here; 2'-MOE gapmer)	at least 35%
ISIS 155102: 2′-MOE gapmer, phosphorothioate backbone, sequence gagaggcattgactgcagga (antisense GAGAGGCATTGACTGCAGGA; all phosphorothioate, sugars by position and methylation of C not given here; 2'-MOE gapmer)	at least 35%
ISIS 155103: 2′-MOE gapmer, phosphorothioate backbone, sequence tgggaagctgatacttcata (antisense TGGGAAGCTGATACTTCATA; all phosphorothioate, sugars by position and methylation of C not given here; 2'-MOE gapmer)	at least 35%
ISIS 155104: 2′-MOE gapmer, phosphorothioate backbone, sequence atgcaatggatgatctggga (antisense ATGCAATGGATGATCTGGGA; all phosphorothioate, sugars by position and methylation of C not given here; 2'-MOE gapmer)	at least 35%
ISIS 155105: 2′-MOE gapmer, phosphorothioate backbone, sequence atcaaagtatttggaaagga (antisense ATCAAAGTATTTGGAAAGGA; all phosphorothioate, sugars by position and methylation of C not given here; 2'-MOE gapmer)	at least 35%
ISIS 155106: 2′-MOE gapmer, phosphorothioate backbone, sequence cacaacctgcatgaagcgac (antisense CACAACCTGCATGAAGCGAC; all phosphorothioate, sugars by position and methylation of C not given here; 2'-MOE gapmer)	at least 35%
ISIS 155107: 2′-MOE gapmer, phosphorothioate backbone, sequence tccgcggtgaagttgggaag (antisense TCCGCGGTGAAGTTGGGAAG; all phosphorothioate, sugars by position and methylation of C not given here; 2'-MOE gapmer)	at least 35%
ISIS 155108: 2′-MOE gapmer, phosphorothioate backbone, sequence attctcgggacactaactga (antisense ATTCTCGGGACACTAACTGA; all phosphorothioate, sugars by position and methylation of C not given here; 2'-MOE gapmer)	at least 35%
ISIS 155109: 2′-MOE gapmer, phosphorothioate backbone, sequence agctcgctgttcaatttcag (antisense AGCTCGCTGTTCAATTTCAG; all phosphorothioate, sugars by position and methylation of C not given here; 2'-MOE gapmer)	at least 35%
ISIS 155110: 2′-MOE gapmer, phosphorothioate backbone, sequence tcgggacactaactgaattc (antisense TCGGGACACTAACTGAATTC; all phosphorothioate, sugars by position and methylation of C not given here; 2'-MOE gapmer)	at least 35%
ISIS 155111: 2′-MOE gapmer, phosphorothioate backbone, sequence gttcggcagaatctggcttg (antisense GTTCGGCAGAATCTGGCTTG; all phosphorothioate, sugars by position and methylation of C not given here; 2'-MOE gapmer)	at least 35%
ISIS 155112: 2′-MOE gapmer, phosphorothioate backbone, sequence taggagtcttctcccttgca (antisense TAGGAGTCTTCTCCCTTGCA; all phosphorothioate, sugars by position and methylation of C not given here; 2'-MOE gapmer)	at least 35%
ISIS 155113: 2′-MOE gapmer, phosphorothioate backbone, sequence ctaatgagttgatcatcata (antisense CTAATGAGTTGATCATCATA; all phosphorothioate, sugars by position and methylation of C not given here; 2'-MOE gapmer)	at least 35%
ISIS 155114: 2′-MOE gapmer, phosphorothioate backbone, sequence aattgttgctttcaaaggca (antisense AATTGTTGCTTTCAAAGGCA; all phosphorothioate, sugars by position and methylation of C not given here; 2'-MOE gapmer)	at least 35%
ISIS 155115: 2′-MOE gapmer, phosphorothioate backbone, sequence agttccttcctgcttcatgc (antisense AGTTCCTTCCTGCTTCATGC; all phosphorothioate, sugars by position and methylation of C not given here; 2'-MOE gapmer)	at least 35%
ISIS 155116: 2′-MOE gapmer, phosphorothioate backbone, sequence aaatctttcatgatgattcc (antisense AAATCTTTCATGATGATTCC; all phosphorothioate, sugars by position and methylation of C not given here; 2'-MOE gapmer)	at least 35%
ISIS 155117: 2′-MOE gapmer, phosphorothioate backbone, sequence gtagattgcaggcagacaga (antisense GTAGATTGCAGGCAGACAGA; all phosphorothioate, sugars by position and methylation of C not given here; 2'-MOE gapmer)	at least 35%
ISIS 155118: 2′-MOE gapmer, phosphorothioate backbone, sequence catccagcatacagtttctt (antisense CATCCAGCATACAGTTTCTT; all phosphorothioate, sugars by position and methylation of C not given here; 2'-MOE gapmer)	at least 35%
ISIS 155119: 2′-MOE gapmer, phosphorothioate backbone, sequence aagtatattaaacacttcct (antisense AAGTATATTAAACACTTCCT; all phosphorothioate, sugars by position and methylation of C not given here; 2'-MOE gapmer)	at least 35%
ISIS 155120: 2′-MOE gapmer, phosphorothioate backbone, sequence gtgtcctattaaagcagtgc (antisense GTGTCCTATTAAAGCAGTGC; all phosphorothioate, sugars by position and methylation of C not given here; 2'-MOE gapmer)	at least 35%
ISIS 155121: 2′-MOE gapmer, phosphorothioate backbone, sequence tgaaaggactttggctccca (antisense TGAAAGGACTTTGGCTCCCA; all phosphorothioate, sugars by position and methylation of C not given here; 2'-MOE gapmer)	at least 35%
ISIS 155122: 2′-MOE gapmer, phosphorothioate backbone, sequence aagcctatccaaatgaggag (antisense AAGCCTATCCAAATGAGGAG; all phosphorothioate, sugars by position and methylation of C not given here; 2'-MOE gapmer)	at least 35%
ISIS 155123: 2′-MOE gapmer, phosphorothioate backbone, sequence gcaaagctgtggtaaactct (antisense GCAAAGCTGTGGTAAACTCT; all phosphorothioate, sugars by position and methylation of C not given here; 2'-MOE gapmer)	at least 35%
ISIS 155124: 2′-MOE gapmer, phosphorothioate backbone, sequence tatgatgtctcccagaagga (antisense TATGATGTCTCCCAGAAGGA; all phosphorothioate, sugars by position and methylation of C not given here; 2'-MOE gapmer)	at least 35%
ISIS 155125: 2′-MOE gapmer, phosphorothioate backbone, sequence ggaaactgatcttctggaaa (antisense GGAAACTGATCTTCTGGAAA; all phosphorothioate, sugars by position and methylation of C not given here; 2'-MOE gapmer)	at least 35%
ISIS 155126: 2′-MOE gapmer, phosphorothioate backbone, sequence ctgtgcatttcaatgtattc (antisense CTGTGCATTTCAATGTATTC; all phosphorothioate, sugars by position and methylation of C not given here; 2'-MOE gapmer)	at least 35%
ISIS 155127: 2′-MOE gapmer, phosphorothioate backbone, sequence gatctggttgaactattact (antisense GATCTGGTTGAACTATTACT; all phosphorothioate, sugars by position and methylation of C not given here; 2'-MOE gapmer)	at least 35%
